# Test results from ChEMBL document CHEMBL3877252, “Fluorescein hydrazones: A series of novel non-intercalative topoisomerase IIα catalytic inhibitors induce G1 arrest and apoptosis in breast and colon cancer cells” (Eur J Med Chem, 2017).
# Activity calls are given as the source filed them. The calls are words filed in the database; no cut-off is given here.
# Tests used:
# [1] = target: T1, DNA topoisomerase 1 (Homo sapiens) (UniProt P11387); experiment: Inhibition of human topoisomerase-1 assessed as inhibition of relaxation of supercoiled pBR322 plasmid DNA at 100 uM measured after 1 hr by ethidium bromide staining based agarose gel electrophoresis relative to control
# T1 sequence (whole entry): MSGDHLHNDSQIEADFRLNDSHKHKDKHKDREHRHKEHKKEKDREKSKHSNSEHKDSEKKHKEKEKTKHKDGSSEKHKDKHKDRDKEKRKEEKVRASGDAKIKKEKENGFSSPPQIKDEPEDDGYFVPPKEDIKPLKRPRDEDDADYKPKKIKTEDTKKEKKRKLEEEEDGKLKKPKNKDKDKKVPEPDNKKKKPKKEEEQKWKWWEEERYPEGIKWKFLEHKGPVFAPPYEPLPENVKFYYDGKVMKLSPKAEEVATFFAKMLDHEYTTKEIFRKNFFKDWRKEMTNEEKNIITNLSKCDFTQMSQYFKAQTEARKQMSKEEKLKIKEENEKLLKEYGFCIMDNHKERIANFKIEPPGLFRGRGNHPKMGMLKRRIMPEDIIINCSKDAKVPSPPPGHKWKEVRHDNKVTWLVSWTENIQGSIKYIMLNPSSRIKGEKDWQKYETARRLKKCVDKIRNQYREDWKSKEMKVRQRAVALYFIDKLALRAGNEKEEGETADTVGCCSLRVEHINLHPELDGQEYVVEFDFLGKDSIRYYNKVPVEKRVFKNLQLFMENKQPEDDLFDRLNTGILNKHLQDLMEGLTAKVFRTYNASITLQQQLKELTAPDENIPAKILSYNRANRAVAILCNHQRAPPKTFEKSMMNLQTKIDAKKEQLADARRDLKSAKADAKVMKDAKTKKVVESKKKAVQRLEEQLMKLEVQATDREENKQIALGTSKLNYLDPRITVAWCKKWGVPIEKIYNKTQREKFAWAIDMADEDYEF
# [2] = Antiproliferative activity against human DU145 cells measured after 72 hrs by CCK8 assay; format: functional, cell-based; conditions: DU-145, 72 h
# [3] = Antiproliferative activity against human T47D cells measured after 72 hrs by CCK8 assay; format: functional, cell-based
# [4] = target: DNA topoisomerase 2-alpha (Homo sapiens) (UniProt P11388); experiment: Inhibition of human topoisomerase-2 alpha assessed as inhibition of relaxation of supercoiled pBR322 plasmid DNA at 20 uM measured after 1 hr by ethidium bromide staining based agarose gel electrophoresis relative to control
# DNA topoisomerase 2-alpha (Homo sapiens), sequence (P11388 whole entry): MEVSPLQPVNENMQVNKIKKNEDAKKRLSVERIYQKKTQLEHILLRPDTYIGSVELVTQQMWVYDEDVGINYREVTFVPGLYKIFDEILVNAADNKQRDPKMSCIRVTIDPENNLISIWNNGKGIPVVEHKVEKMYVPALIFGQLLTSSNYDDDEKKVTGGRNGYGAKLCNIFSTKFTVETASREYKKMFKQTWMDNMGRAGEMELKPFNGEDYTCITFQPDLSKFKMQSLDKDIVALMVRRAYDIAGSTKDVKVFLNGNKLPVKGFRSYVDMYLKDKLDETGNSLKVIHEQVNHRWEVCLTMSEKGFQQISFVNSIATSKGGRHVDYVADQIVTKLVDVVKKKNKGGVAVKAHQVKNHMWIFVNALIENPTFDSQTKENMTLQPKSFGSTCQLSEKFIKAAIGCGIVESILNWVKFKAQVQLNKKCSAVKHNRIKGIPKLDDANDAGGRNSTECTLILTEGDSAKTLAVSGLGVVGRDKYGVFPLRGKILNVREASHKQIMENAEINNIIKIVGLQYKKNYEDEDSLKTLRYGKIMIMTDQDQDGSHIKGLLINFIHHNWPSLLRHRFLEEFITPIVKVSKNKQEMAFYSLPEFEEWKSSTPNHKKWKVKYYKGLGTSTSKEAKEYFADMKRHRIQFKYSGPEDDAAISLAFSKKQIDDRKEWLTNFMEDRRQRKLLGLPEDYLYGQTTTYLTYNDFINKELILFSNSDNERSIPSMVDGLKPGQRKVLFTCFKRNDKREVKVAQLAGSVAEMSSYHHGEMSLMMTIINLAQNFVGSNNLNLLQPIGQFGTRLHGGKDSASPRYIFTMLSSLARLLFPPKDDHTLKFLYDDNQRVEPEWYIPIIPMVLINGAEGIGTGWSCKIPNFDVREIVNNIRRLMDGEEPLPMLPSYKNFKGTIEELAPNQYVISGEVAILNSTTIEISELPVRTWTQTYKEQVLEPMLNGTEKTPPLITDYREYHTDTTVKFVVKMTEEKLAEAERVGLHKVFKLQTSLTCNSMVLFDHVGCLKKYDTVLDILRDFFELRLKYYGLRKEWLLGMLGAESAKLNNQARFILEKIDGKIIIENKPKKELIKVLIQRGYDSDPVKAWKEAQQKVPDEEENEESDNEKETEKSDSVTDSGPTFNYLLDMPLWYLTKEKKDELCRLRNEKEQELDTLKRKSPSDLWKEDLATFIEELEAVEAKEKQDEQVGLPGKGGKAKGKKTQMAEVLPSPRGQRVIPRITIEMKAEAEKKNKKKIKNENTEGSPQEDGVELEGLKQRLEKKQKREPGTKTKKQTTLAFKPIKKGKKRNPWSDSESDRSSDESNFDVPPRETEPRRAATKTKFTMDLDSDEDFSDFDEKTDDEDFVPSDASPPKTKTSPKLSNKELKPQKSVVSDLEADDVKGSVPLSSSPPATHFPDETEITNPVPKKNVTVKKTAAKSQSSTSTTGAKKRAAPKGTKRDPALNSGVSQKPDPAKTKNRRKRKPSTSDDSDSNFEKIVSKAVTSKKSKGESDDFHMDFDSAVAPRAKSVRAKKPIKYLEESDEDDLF
# [5] = target: DNA topoisomerase 2-alpha (Homo sapiens) (UniProt P11388); experiment: Inhibition of human topoisomerase-2 alpha assessed as inhibition of relaxation of supercoiled pBR322 plasmid DNA at 100 uM measured after 1 hr by ethidium bromide staining based agarose gel electrophoresis relative to control
# [6] = Antiproliferative activity against human MCF7 cells measured after 72 hrs by CCK8 assay; format: functional, cell-based; conditions: MCF7, 72 h
# [7] = Antiproliferative activity against human HCT15 cells measured after 72 hrs by CCK8 assay; format: functional, cell-based; conditions: HCT-15, 72 h
# [8] = target: DNA topoisomerase 2-alpha (Homo sapiens) (UniProt P11388); experiment: Poison activity at topoisomerase-2 alpha in human T47D cells assessed as DNA damage by measuring DNA tail length at 5 uM measured after 24 hrs by alkaline comet assay; format: cell-based
# [9] = Cell cycle arrest in human T47D cells assessed as accumulation at G2/M phase at 10 uM after 5 hrs by DAPI staining-based cell analyzer (reference value: 18 to 20%); format: functional
# [10] = Cell cycle arrest in human T47D cells assessed as accumulation at G1 phase at 10 uM after 10 hrs by DAPI staining-based cell analyzer (reference value: 47 to 50%); format: functional
# [11] = Cell cycle arrest in human T47D cells assessed as accumulation at G2/M phase at 10 uM after 10 hrs by DAPI staining-based cell analyzer (reference value: 18 to 20%); format: functional
# [12] = Cell cycle arrest in human T47D cells assessed as accumulation at G1 phase at 10 uM by DAPI staining based cell analyzer; format: functional; conditions: TDE = time-dependent effect
# [13] = Cell cycle arrest in human T47D cells assessed as accumulation at G1 phase at 1 uM after 24 hrs by DAPI staining-based cell analyzer (reference value: 51%); format: functional
# [14] = Cell cycle arrest in human T47D cells assessed as accumulation at S phase at 10 uM after 24 hrs by DAPI staining-based cell analyzer (reference value: 26%); format: functional
# [15] = Cell cycle arrest in human T47D cells assessed as decrease in cyclin D1 level measured after 24 hrs; format: functional, cell-based
# [16] = system: T47D; experiment: Induction of apoptosis in human T47D cells assessed as increase in cleaved PARP level measured after 24 hrs by Western blot analysis; format: functional, cell-based
# [17] = Cell cycle arrest in human T47D cells assessed as increase in p27kip1 level measured after 24 hrs; format: functional, cell-based
# [18] = system: T47D; experiment: Induction of apoptosis in human T47D cells assessed as increase in bax level measured after 24 hrs by Western blot analysis; format: functional, cell-based
# [19] = Cell cycle arrest in human T47D cells assessed as accumulation at G1 phase at 10 uM after 20 hrs by DAPI staining-based cell analyzer (reference value: 47 to 50%); format: functional
# [20] = Cell cycle arrest in human T47D cells assessed as accumulation at S phase at 3 uM after 24 hrs by DAPI staining-based cell analyzer (reference value: 26%); format: functional
# [21] = Cell cycle arrest in human T47D cells assessed as accumulation at S phase at 1 uM after 24 hrs by DAPI staining-based cell analyzer (reference value: 26%); format: functional
# [22] = target: DNA topoisomerase 2-alpha (Homo sapiens) (UniProt P11388); experiment: Inhibition of topoisomerase-2 alpha catalytic activity in human T47D cells assessed as appearance of free protein band at 50 uM measured after 2 hrs by Western blot analysis; format: cell-based
# [23] = Cell cycle arrest in human T47D cells assessed as accumulation at G1 phase at 10 uM after 24 hrs by DAPI staining-based cell analyzer (reference value: 51%); format: functional
# [24] = Cell cycle arrest in human T47D cells assessed as accumulation at G2/M phase at 10 uM after 20 hrs by DAPI staining-based cell analyzer (reference value: 18 to 20%); format: functional
# [25] = Cell cycle arrest in human T47D cells assessed as accumulation at G1 phase at 10 uM after 15 hrs by DAPI staining-based cell analyzer (reference value: 47 to 50%); format: functional
# [26] = Cell cycle arrest in human T47D cells assessed as accumulation at G2/M phase at 1 uM after 24 hrs by DAPI staining-based cell analyzer (reference value: 15%); format: functional
# [27] = Cell cycle arrest in human T47D cells assessed as accumulation at G1 phase at 3 uM after 24 hrs by DAPI staining-based cell analyzer (reference value: 51%); format: functional
# [28] = Cell cycle arrest in human T47D cells assessed as accumulation at G2/M phase at 10 uM after 24 hrs by DAPI staining-based cell analyzer (reference value: 15%); format: functional
# [29] = Cell cycle arrest in human T47D cells assessed as accumulation at S phase at 10 uM after 20 hrs by DAPI staining-based cell analyzer (reference value: 22%); format: functional
# [30] = Cell cycle arrest in human T47D cells assessed as decrease in cyclin D1 level at 10 uM; format: functional, cell-based; conditions: TDE = time-dependent effect
# [31] = target: DNA topoisomerase 2-alpha (Homo sapiens) (UniProt P11388); experiment: Poison activity at topoisomerase-2 alpha in human T47D cells assessed as DNA damage by measuring DNA tail length at 10 uM measured after 24 hrs by alkaline comet assay; format: cell-based
# [32] = system: T47D; experiment: Induction of apoptosis in human T47D cells assessed as decrease in bcl-2 level measured after 24 hrs by Western blot analysis; format: functional, cell-based
# [33] = Cell cycle arrest in human T47D cells assessed as accumulation at S phase at 10 uM after 10 hrs by DAPI staining-based cell analyzer (reference value: 22%); format: functional
# [34] = Cell cycle arrest in human T47D cells assessed as accumulation at G2/M phase at 3 uM after 24 hrs by DAPI staining-based cell analyzer (reference value: 15%); format: functional
# [35] = Cell cycle arrest in human T47D cells assessed as increase in p27kip1 level at 10 uM; format: functional, cell-based; conditions: TDE = time-dependent effect
# [36] = Cell cycle arrest in human T47D cells assessed as accumulation at S phase at 10 uM after 5 hrs by DAPI staining-based cell analyzer (reference value: 22%); format: functional
# [37] = Cell cycle arrest in human T47D cells assessed as accumulation at G2/M phase at 10 uM after 15 hrs by DAPI staining-based cell analyzer (reference value: 18 to 20%); format: functional
# [38] = Cell cycle arrest in human T47D cells assessed as accumulation at S phase at 10 uM after 15 hrs by DAPI staining-based cell analyzer (reference value: 22%); format: functional
# [39] = Cell cycle arrest in human T47D cells assessed as accumulation at G1 phase at 10 uM after 5 hrs by DAPI staining-based cell analyzer (reference value: 47 to 50%); format: functional
# [40] = target: T1, DNA topoisomerase 1 (Homo sapiens); experiment: Inhibition of human topoisomerase-1 assessed as inhibition of relaxation of supercoiled pBR322 plasmid DNA at 20 uM measured after 1 hr by ethidium bromide staining based agarose gel electrophoresis relative to control
smiles,measurement,setting,value
CCOc1ccc2c(c1)Oc1cc(O)ccc1C21c2ccccc2C(=O)N1/N=C/c1ccc(Cl)cc1Cl (stereo not drawn),inhibition,[1],12.3%
same,IC50,[2],> 50 µM
same,IC50,[3],> 50 µM
same,inhibition,[4],2.3%
same,inhibition,[5],80%
same,IC50,[6],23.2 µM
same,IC50,[7],3.17 µM
CCOc1ccc2c(c1)Oc1cc(O)ccc1C21c2ccccc2C(=O)N1/N=C/c1cccc(O)c1 (stereo not drawn),Activity,[8],9.55 pixel
same,Activity,[9],12%
same,Activity,[10],60%
same,Activity,[11],12%
same,inhibition,[1],0%
same,Activity,[12],Tde
same,Activity,[13],56%
same,Activity,[14],20%
same,Activity,[15],Dose-dependent effect
same,Activity,[16],Dose-dependent effect
same,Activity,[17],Dose-dependent effect
same,Activity,[18],Dose-dependent effect
same,Activity,[19],65%
same,Activity,[20],22%
same,Activity,[21],24%
same,inhibition,[22],Active
same,IC50,[2],0.04 µM
same,Activity,[23],64%
same,IC50,[3],0.35 µM
same,inhibition,[4],2.6%
same,Activity,[24],12%
same,Activity,[25],61%
same,Activity,[26],13%
same,Activity,[27],57%
same,Activity,[28],9%
same,Activity,[29],15%
same,Activity,[30],Tde
same,Activity,[31],11.5 pixel
same,inhibition,[5],89.3%
same,Activity,[32],Dose-dependent effect
same,IC50,[6],2.23 µM
same,IC50,[7],0.83 µM
same,Activity,[33],21%
same,Activity,[34],12%
same,Activity,[35],Tde
same,Activity,[36],21%
same,Activity,[37],12%
same,Activity,[38],21%
same,Activity,[39],59%
CCOc1ccc2c(c1)Oc1cc(O)ccc1C21c2ccccc2C(=O)N1/N=C/c1ccccc1OC (stereo not drawn),inhibition,[1],28.1%
same,IC50,[2],> 50 µM
same,IC50,[3],> 50 µM
same,inhibition,[4],3.3%
same,inhibition,[5],58.3%
same,IC50,[6],> 50 µM
same,IC50,[7],0.67 µM
CCOc1ccc2c(c1)Oc1cc(OC(=O)c3ccccc3Cl)ccc1C21c2ccccc2C(=O)N1/N=C/c1ccc(Cl)cc1 (stereo not drawn),inhibition,[1],90.5%
same,inhibition,[40],36.4%
same,IC50,[2],> 50 µM
same,IC50,[3],> 50 µM
same,inhibition,[4],1.5%
same,inhibition,[5],83.7%
same,IC50,[6],> 50 µM
same,IC50,[7],28.7 µM
CCOc1ccc2c(c1)Oc1cc(O)ccc1C21c2ccccc2C(=O)N1/N=C/c1ccc(Cl)cc1 (stereo not drawn),inhibition,[1],22.7%
same,IC50,[2],2.3 µM
same,IC50,[3],5.74 µM
same,inhibition,[4],1.3%
same,inhibition,[5],81.6%
same,IC50,[6],9.77 µM
same,IC50,[7],2.19 µM
